{
  "source": "patent US12227500B2",
  "about": "“Substituted pyrrolo[2,3-b]pyridines for suppressing toxic endoplasmic reticulum stress” (THE TRUSTEES OF COLUMBIA UNIVERSITY IN THE CITY OF NEW YORK, priority 2018, dated 2025)",
  "key": {"[1]": {"test_system": "HB9::GFP-SOD1^+/A4V human motor neurons", "assay": "Rescue of CPA toxicity in human ESC-derived motor neurons, SOD1^+/A4V", "format": "cell-based", "conditions": "SOD1^A4V motor neurons, 33 μM CPA", "description": "(§1) One advantage of the stem cell-derived motor neuron survival assay is that it can be easily extended to human motor neurons. To adapt the assay to human cells, we generated a new isogenic pair of ESC lines derived from a human ESC line expressing GFP under the control of the Hb9 motor neuron promoter (HUES3 HB9::GFP, (Di Giorgio et al. 2008)). […] . The pair of cell lines was differentiated into motor neurons in parallel using previously published protocols (Amoroso et al. 2013; […] .\n(§2) Differentiation of human isogenic HUES3 ESC HB9::GFP reporter lines into motor neurons was performed as previously described (Maury et al. 2015). Cells were dissociated on day 16 of differentiation, FACS-sorted and plated on poly-ornithine- and laminin-coated surfaces as above. Serum-free human motor neuron plating media was supplemented with the antimitotic UFdU and the neurotrophic factors GDNF, BDNF, CNTF, and IGF1 (all at 10 ng/mL) as described (Johnson-Kerner et al. 2015)."}, "[2]": {"assay": "Solubility of kenpaullone (observation)", "format": "physicochemical"}, "[3]": {"test_system": "HB9::GFP-SOD1^+/+ human motor neurons", "assay": "Rescue of CPA toxicity in human ESC-derived motor neurons, SOD1^+/+", "format": "cell-based", "conditions": "WT motor neurons, 33 μM CPA", "description": "as §1, §2"}, "MLK3": {"target": "MLK3 (Homo sapiens, UniProt Q16584)", "sequence (Q16584 whole entry, species assumed)": "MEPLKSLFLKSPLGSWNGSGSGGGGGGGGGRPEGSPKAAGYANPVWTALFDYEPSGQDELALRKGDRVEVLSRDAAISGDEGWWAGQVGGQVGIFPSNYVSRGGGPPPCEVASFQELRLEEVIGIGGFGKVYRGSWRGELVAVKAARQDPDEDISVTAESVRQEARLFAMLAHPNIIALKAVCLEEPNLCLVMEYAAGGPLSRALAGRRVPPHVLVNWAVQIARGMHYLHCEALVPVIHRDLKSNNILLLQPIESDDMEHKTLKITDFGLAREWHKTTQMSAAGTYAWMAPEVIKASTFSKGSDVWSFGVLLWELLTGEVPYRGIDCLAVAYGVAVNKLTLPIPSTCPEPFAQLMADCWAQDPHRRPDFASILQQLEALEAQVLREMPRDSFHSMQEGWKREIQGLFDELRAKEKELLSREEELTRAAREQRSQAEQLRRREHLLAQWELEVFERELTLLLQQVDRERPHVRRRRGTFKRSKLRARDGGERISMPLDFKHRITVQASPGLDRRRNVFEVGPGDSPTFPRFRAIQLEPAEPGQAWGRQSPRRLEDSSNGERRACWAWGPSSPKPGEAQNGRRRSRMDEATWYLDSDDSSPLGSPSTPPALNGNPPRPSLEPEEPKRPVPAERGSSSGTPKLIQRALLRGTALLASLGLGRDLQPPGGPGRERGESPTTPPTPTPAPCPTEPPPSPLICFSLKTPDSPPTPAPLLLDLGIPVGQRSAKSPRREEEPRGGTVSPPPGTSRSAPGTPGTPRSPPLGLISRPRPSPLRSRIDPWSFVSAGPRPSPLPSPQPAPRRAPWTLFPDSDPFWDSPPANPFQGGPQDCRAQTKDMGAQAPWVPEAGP", "conditions": "0.5 μM; Anastassiadis et al. 2011; cited from earlier work"}, "hSOD1^G93A mice": {"test_system": "hSOD1^G93A mice", "assay": "TUDCA on neuromuscular junction denervation of tibialis anterior", "format": "in vivo, mouse", "conditions": "0.5 mg/g subcutaneously every three days, P30 to P50", "description": "To test the ability of TUDCA to preserve motor axons in ALS models in vivo, we designed a small-scale study in which we evaluated the denervation of the fast fatigable hind limb muscle tibialis anterior (TA) (FIG. 20D). […]. During this period, the TA muscles display 25-40% denervation before becoming substantially atrophied at later time points. […]. At the end of the experiment, we counted total NMJs by staining for acetylcholine receptors on the TA muscle with Alexa Fluor 488-conjugated α-bungarotoxin, and assessed their innervation by staining for motor axons with antibodies against vesicular acetylcholine […] (VAChT) (FIG. 20F). […].\n(2) hSOD1^WT mice receiving 0.5 mg/g TUDCA in 0.01 M PBS subcutaneously to evaluate the mutation-specific effects of NMJ denervation and of the drug; […]. […] Because a lack of co-localization indicated muscle denervation, % NMJ innervation was determined by dividing the total number of areas of overlap between VAChT and BTX signals (total number innervated endplates) by the number of areas containing BTX signal (total number of endplates). One TA was assessed for each animal (n=4-6), with every third section throughout the whole muscle stained and counted such that a minimum of 1000 NMJs were evaluated per animal. Images were acquired using a Nikon Eclipse TE-2000-E fluorescence microscope with a 4× or 10× objective. […]"}, "NUAK1": {"target": "NUAK1 (Homo sapiens, UniProt O60285)", "sequence (O60285 whole entry, species assumed)": "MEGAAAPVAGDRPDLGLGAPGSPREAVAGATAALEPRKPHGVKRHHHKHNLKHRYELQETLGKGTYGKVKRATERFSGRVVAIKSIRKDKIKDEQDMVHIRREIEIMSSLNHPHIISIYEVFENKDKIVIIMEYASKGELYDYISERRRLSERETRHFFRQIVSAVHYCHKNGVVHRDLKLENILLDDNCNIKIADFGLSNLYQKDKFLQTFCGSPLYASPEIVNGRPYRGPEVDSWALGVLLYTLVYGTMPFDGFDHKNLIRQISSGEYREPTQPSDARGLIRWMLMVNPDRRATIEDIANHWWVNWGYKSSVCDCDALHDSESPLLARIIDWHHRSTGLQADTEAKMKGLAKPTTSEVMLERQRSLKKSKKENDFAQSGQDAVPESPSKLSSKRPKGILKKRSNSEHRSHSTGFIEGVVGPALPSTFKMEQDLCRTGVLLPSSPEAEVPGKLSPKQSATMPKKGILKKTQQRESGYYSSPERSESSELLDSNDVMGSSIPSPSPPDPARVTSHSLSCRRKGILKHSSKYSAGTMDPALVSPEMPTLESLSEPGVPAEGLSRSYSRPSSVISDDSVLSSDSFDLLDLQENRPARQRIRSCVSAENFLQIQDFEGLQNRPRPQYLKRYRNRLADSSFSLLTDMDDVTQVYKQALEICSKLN", "conditions": "cited from earlier work"}, "[4]": {"test_system": "human stem cell-derived motor neurons derived from a healthy patient"}, "human ES motor neurons": {"test_system": "human ES motor neurons", "assay": "Rescue of CPA toxicity by kinase inhibitors in dilution series (FIG. 3)", "conditions": "dilution series, FIG. 3"}, "[5]": {"test_system": "human stem cell-derived motor neurons derived from a healthy patient", "assay": "CPA survival assay, wild-type human stem cell-derived motor neurons", "conditions": "8-point dilution series"}, "[6]": {"assay": "Plasma and brain concentration 30 min after IP injection", "format": "in vivo, mouse", "conditions": "male, C57BL6/J, mouse, mice, ip dosing, 30 minutes; for Kp at 30 min: brain/plasma, read-out: B/P", "description": "All studies were performed on 6-week old male C57BL6/J mice that were housed in the Columbia University Medical Center facility in a 12h light/dark cycle with access to food and water ad libitum. All animal procedures were approved by the Columbia University IACUC. […] Animals were weighed and injected once intraperitoneally (IP) at the indicated dose (10 or 20 mg/kg). After 30 min, animals were deeply anesthetized with 2.5% Avertin. Whole blood was collected by cardiac puncture in tubes containing 0.5M EDTA as an anticoagulant, and centrifuged for 10 min at 845 rcf at 4° to isolate plasma. Following cardiac puncture, animals were decapitated and brains were dissected and weighed. Brain samples were homogenized with a glass dounce homogenizer in 5 volumes of ddH2O. Brain and plasma samples were snap frozen in liquid nitrogen and stored at −80° C. before further processing.\nThe plasma samples were transferred to Eppendorf tubes (50 μL per sample) and diluted with acetonitrile (200 μL). The samples were sonicated for 1 minute followed by centrifugation at 16,000 rpm for 10 minutes. The supernatant was transferred to another Eppendorf tube and the solvent evaporated overnight. The samples were reconstituted in a mixture of 40 μL acetonitrile and 10 μL water transferred to a sample vial with insert, and analyzed by LC-MS.\nThe homogenized brain samples (250 μL) were transferred to Eppendorf tubes and diluted with acetonitrile (750 μL). The samples were sonicated for 1 minute followed by centrifugation at 16,000 rpm for 10 minutes. The supernatant (900 μL) was transferred to another Eppendorf tube and the solvent evaporated overnight. The samples were reconstituted in a mixture of 80 μL acetonitrile and 20 μL water, transferred to a sample vial with insert, and analyzed by LC-MS.\nLC-MS analysis was performed on a platform comprising a Thermo Scientific Dionex Ultimate 3000 and a Bruker amaZon SL equipped with an electrospray ionization source controlled by Bruker Hystar 3.2. The compound concentration in each plasma sample was determined using a calibration curve. Chromatographic separation was performed by injecting 10 μL of the sample onto an Agilent Eclipse Plus C18 column (2.1×50 mm, 3.5 μm) maintained at 20° C. The flow rate was maintained at 400 μL/min. The initial flow conditions were 60% solvent A (water containing 0.1% acetic acid) and 40% solvent B (methanol containing 0.1% acetic acid). Solvent B was raised to 60% over 0.25 minutes and to 70% by 6.75 minutes."}, "[7]": {"test_system": "human ES motor neurons carrying the ALS-causing SOD1^A4V mutation", "assay": "cells", "format": "cell-based", "conditions": "Homo sapiens, Neuron, 72 h, CPA 33 μM, 72 h", "description": "Next, survival assays were performed with all the analogs at once to generate a low-variability dataset. All compounds were evaluated at concentrations ranging from 0.1-3.0 μM (five-point dilution) in three technical replicates and two biological replicates."}, "phospho-cjun": {"test_system": "phospho-cjun", "assay": "Phospho-cjun in olfactory bulbs after treatment in vivo (western blot)", "parameters": "species or system mouse", "conditions": "10 mg/kg oral gavage", "description": "Compounds at 10 mg/kg were delivered intraperitoneally (IP), orally, or sub-cutaneously (SC). Animals were sacrificed 1 h after treatment. Their olfactory bulbs were dissected and lysed for western blot analysis. Phospho-cjun expression was normalized to the housekeeping protein GAPDH.\nWe therefore selected phospho-cjun as a marker of target engagement for further in vivo studies. C-jun is highly expressed throughout the murine central nervous system, especially in the olfactory bulbs. […] Animals were then sacrificed after 1 h, and their olfactory bulbs were sub-dissected and lysed for further western blot analysis. Samples were probed with an antibody specific to phosphorylated c-jun (at serine 63; cell signaling) and normalized to the housekeeping gene GAPDH."}},
  "note": "Where “and” joins values, the source holds several entries; their conditions need not be identical. Identical values can stand only once. Like-named read-outs stand apart in the source and are kept apart here.",
  "data": [
    {"compound": "O=C1Cc2c([nH]c3ccc(Br)cc23)-c2ccccc2N1", "note": "[Kenpaullone]", "values": [
      {"measurement": "rescue of CPA-induced cell death", "setting": "[1]", "result": 31, "unit": "%"},
      {"measurement": "solubility at the concentrations effective in in vitro CPA assays", "setting": "[2]", "result": "insoluble"},
      {"measurement": "rescue of CPA-induced cell death", "setting": "[3]", "result": 42, "unit": "%"},
      {"measurement": "MLK3 activity remaining", "setting": "MLK3", "result": 49.3, "unit": "%"}
    ]},
    {"compound": "C[C@H](CCC(=O)NCCS(=O)(=O)O)[C@H]1CC[C@H]2[C@@H]3[C@@H](O)C[C@@H]4C[C@H](O)CC[C@]4(C)[C@H]3CC[C@]12C", "note": "[TUDCA, tauroursodeoxycholic acid]", "values": [
      {"measurement": "rescue of CPA-induced cell death", "setting": "[1]", "result": 9, "unit": "%"},
      {"measurement": "NMJ innervation vs untreated animals", "setting": "hSOD1^G93A mice", "result": "moderate, but statistically significant increase in NMJ innervation"},
      {"measurement": "rescue of CPA-induced cell death", "setting": "[3]", "result": 34, "unit": "%"}
    ]},
    {"compound": "Cc1nc(Nc2cnn(C3CCNCC3)c2)nc2c1N(C)C(=O)c1cc3ccccc3cc1N2C", "note": "[HTH 01-015]", "values": [
      {"measurement": "IC50", "setting": "NUAK1", "result": 100, "unit": "nM"},
      {"measurement": "concentration above which toxic to motor neurons in the absence of CPA", "setting": "[4]", "result": "above 2 μM"},
      {"measurement": "rescue of CPA toxicity", "setting": "human ES motor neurons", "result": "failed to rescue CPA toxicity"},
      {"measurement": "rescue of CPA toxicity", "setting": "[5]", "result": "unable to rescue CPA toxicity"}
    ]},
    {"compound": "OCCN1CCN(Cc2ccc(-c3cnc4[nH]cc(-c5cccc(F)c5)c4c3)cc2)CC1", "note": "[Compound 12h, 2-(4-(4-(3-(3-Fluorophenyl)-1H-pyrrolo[2,3-b]pyridin-5-yl)benzyl)piperazin-1-yl)ethan-1-ol]", "values": [
      {"measurement": "Kp at 30 min", "setting": "[6]; 10 mg/kg", "result": 2},
      {"measurement": "Kp at 30 min", "setting": "[6]; 20 mg/kg", "result": 3.3},
      {"measurement": "concentration at 30 min", "setting": "[6]; 10 mg/kg, read-out: brain", "result": "< 500 ng/g and < 1.2 µM"},
      {"measurement": "concentration at 30 min", "setting": "[6]; 10 mg/kg, read-out: plasma", "result": "< 250 ng/mL and < 580 nM"},
      {"measurement": "concentration at 30 min", "setting": "[6]; 20 mg/kg, read-out: brain", "result": "1670 ng/g and 3.88 µM"},
      {"measurement": "concentration at 30 min", "setting": "[6]; 20 mg/kg, read-out: plasma", "result": "505 ng/mL and 1.17 µM"},
      {"measurement": "EC50", "setting": "[7]; read-out: EC50", "result": 100, "unit": "nM"},
      {"measurement": "Emax", "setting": "[7]; read-out: Emax (MN survival % untreated)", "result": 117, "unit": "%"},
      {"measurement": "oral bioavailability (from reduction of cjun phosphorylation after oral gavage)", "setting": "phospho-cjun", "result": "orally bioavailable"}
    ]}
  ]
}
